Experimental data as given in article PMC9481570, “A small molecule antagonist of SMN disrupts the interaction between SMN and RNAP II” (Nature Communications, 2022).

Assays:
[1] = molecular target: T1, SMN_N132A (Homo sapiens, UniProt Q16637, N132A); test: ITC binding to SMN Tudor mutant N132A; conditions: Fig. 3d
T1 construct: cloned into pET28-MHL vector: SMN (aa 82–147); His (N, cleaved yes); made in house; host or cells: E. coli BL21 (DE3) Codon plus RIL
Source text: (§1) The coding DNA fragments of following Tudor domains were cloned into pET28-MHL vector: SMN (aa 82–147), UHRF1 (aa 126–285), SMNDC1 (aa 53–130), TDRD3 (aa 554–611), SND1 (aa 650–910), TDRD2 (aa 327–420), FXR1 (aa 2–132), PHF1 (aa 28–87), SGF29 (aa 115–293), JMJD2A (aa 897–1101), 53BP1 (aa 1483–1606), SETDB1 (aa 190–410), LBR (aa 1–67), ZGPAT (aa 120–271). The coding regions of chromodomain of CBX7 (aa 8–62), PWWP domain of DNMT3A (aa 275–417), WD40 repeats of WDR5 (aa 24–334) and CW domain of ZCWPW2 (aa 21–78) were also subcloned into pET28-MHL vector to generate N-terminally His-tagged fusion protein. The MBT repeats of L3MBTL1 (aa 200–522) and L3MBTL2 (aa 170–625) were subcloned into pET28GST-LIC vector to generate N-terminally GST-His-tagged fusion protein. All the plasmids were generated by ligase independent cloning (Vazyme Biotech, C112 or ABclonal Technology, RK21020). […] The molecular weight of all protein samples was measured by mass spectrometry.
(§2) For the ITC measurement, the concentrated proteins were diluted into 20 mM Tris-HCl, pH 7.5, 150 mM NaCl (ITC buffer); the lyophilized compounds were dissolved in the same buffer, and the pH value was adjusted by adding 2 M NaOH or 2 M HCl. […] Compound concentrations were calculated from the mass and the volume of the solvent. […]

[2] = molecular target: T2, SMN_N132D (Homo sapiens, UniProt Q16637, N132D); test: ITC binding to SMN Tudor mutant N132D; conditions: Fig. 3d
T2 construct: cloned into pET28-MHL vector: SMN (aa 82–147); His (N, cleaved yes); made in house; host or cells: E. coli BL21 (DE3) Codon plus RIL
T2 sequence (Q16637 82-147 N132D): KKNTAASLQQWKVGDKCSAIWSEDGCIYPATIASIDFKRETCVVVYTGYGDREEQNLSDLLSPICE
Source text: as §1, §2

T1 sequence (Q16637 82-147 N132A): as the sequence (Q16637 82-147 N132D) above, with D51A counted along it

Cn1c2c(c(=N)c3c1CCC3)CCC2 [Compound 1, 4-methyl-2,3,4,5,6,7-hexahydrodicyclopenta[b,e]pyridin-8(1H)-imine] gave a Kd [1] of 70 ± 6 µM and a Kd [2] of 3.3 ± 0.1 µM.
